The values that follow come from patent publication US11795169B2, “MAP4K4 inhibitors” (IMPERIAL COLLEGE INNOVATIONS LIMITED, priority 2017, dated 2023).

The structures appear in SMILES notation. Read-outs that look alike come from different tables or passages of the source.

The target of test [1] is human MAP4K4 kinase domain (Homo sapiens (Human), UniProt O95819). Description: MAP4K4 kinase activity, CisBio HTRF Transcreener ADP assay. The test is classed as biochemical. An excerpt:
(§1) Compounds of the present invention were screened for their inhibitory activity against MAP4K4, versus selected off-target hits found with early members of this chemical series. MAP4K4 kinase activity was monitored using the CisBio HTRF Transcreener ADP assay, acompetitive immunoassay with a reproducible Z′>0.6. In the detection step, endogenous ADP and d2-labeled ADP compete for binding an anti-ADP monoclonal antibody labelled with Eu^3+ cryptate. A ratiometric fluorescent read-out is used at 665 and 620 nm. […] Assays were run in Greiner low volume plates with a final reaction volume of 10 μl. The MAP4K4 inhibition data are provided in Table 33 below for selected compounds of the present invention. The data has been categorised based on the IC50 value of the compound as “A”, “B” or “C”.
For orientation: TR-FRET usually uses a lanthanide donor and a delayed reading to cut background.

In test [2] the test system is CorV.4U cardiomyocytes (hiPSC-CMs). Description: Protection of CorV.4U cardiomyocytes from H2O2 or menadione (luminescent cell viability assay, human cardiac troponin assay). It is filed as cell-based. The conditions noted are these: Homo sapiens, Cardiomyocyte; read-out: EC50, protection of human cardiomyocytes. The text has this:
To substantiate the hypothesis that pharmacological inhibition of MAP4K4 would confer resistance to cell death in human cardiomyocytes, cytoprotection was next assessed using hiPSC-CMs.

Test [3] deals with MINK1/MAP4K6 (Homo sapiens (Human), UniProt Q8N4C8). Description: Kinase selectivity panel: MINK1/MAP4K6. The conditions noted are these: read-out: pIC50 MINK1/MAP4K6 (converted). It is filed as biochemical.
Text: as §1
(§2) The data in Table 34 also provides the fold selectivity of the two compounds in favour of MAP4K4 over the tested kinase. The fold selectivity is indicated in parenthesis.

The target in test [4] is TNIK/MAP4K7 (Homo sapiens (Human), UniProt Q9UKE5). Put plainly: Kinase selectivity panel: TNIK/MAP4K7. The test is classed as biochemical. The note with it: read-out: pIC50 TNIK/MAP4K7 (converted).
Text: as §1, §2

In test [5] the target is GCK/MAP4K2 (Homo sapiens (Human), UniProt Q12851). Description: Kinase selectivity panel: GCK/MAP4K2. The test is classed as biochemical.
Sequence of GCK/MAP4K2 (Q12851 whole entry): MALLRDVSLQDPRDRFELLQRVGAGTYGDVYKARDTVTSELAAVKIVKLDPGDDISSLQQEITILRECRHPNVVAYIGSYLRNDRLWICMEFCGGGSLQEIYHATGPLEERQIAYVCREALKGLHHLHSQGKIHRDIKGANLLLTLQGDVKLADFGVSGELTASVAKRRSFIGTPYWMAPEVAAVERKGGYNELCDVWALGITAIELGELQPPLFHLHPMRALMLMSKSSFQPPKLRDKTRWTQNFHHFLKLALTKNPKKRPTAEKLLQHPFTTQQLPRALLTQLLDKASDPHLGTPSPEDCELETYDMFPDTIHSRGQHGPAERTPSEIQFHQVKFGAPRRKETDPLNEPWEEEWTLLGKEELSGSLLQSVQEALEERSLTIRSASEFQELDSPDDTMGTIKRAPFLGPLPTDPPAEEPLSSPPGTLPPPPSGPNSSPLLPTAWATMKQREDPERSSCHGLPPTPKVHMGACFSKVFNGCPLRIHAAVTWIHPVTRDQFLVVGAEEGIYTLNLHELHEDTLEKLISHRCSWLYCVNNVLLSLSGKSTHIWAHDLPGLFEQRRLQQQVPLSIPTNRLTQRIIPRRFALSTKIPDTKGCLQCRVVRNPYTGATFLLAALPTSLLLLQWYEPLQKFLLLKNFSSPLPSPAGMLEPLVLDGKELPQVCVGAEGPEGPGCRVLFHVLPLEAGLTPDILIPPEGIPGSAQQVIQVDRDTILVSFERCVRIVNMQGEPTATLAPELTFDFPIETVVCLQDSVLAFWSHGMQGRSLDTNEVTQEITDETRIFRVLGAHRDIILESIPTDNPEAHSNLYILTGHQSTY
Text: as §1, §2

Test [6] deals with GLK/MAP4K3 (Homo sapiens (Human), UniProt Q8IVH8). Put plainly: Kinase selectivity panel: GLK/MAP4K3. It is filed as biochemical.
Text: as §1, §2

Test [7] has as its target KHS/MAP4K5 (Homo sapiens (Human), UniProt Q9Y4K4). Put plainly: Kinase selectivity panel: KHS/MAP4K5. It is filed as biochemical.
Text: as §1, §2

Test [8] has as its target ABL1 (Homo sapiens (Human), UniProt P00519). Put plainly: Kinase selectivity panel: ABL1. It is filed as biochemical.
Text: as §1, §2

Test [9] deals with Aurora B (Homo sapiens (Human), UniProt Q96GD4). Put plainly: Kinase selectivity panel: Aurora B. The test is classed as biochemical.
Sequence of Aurora B (Q96GD4 whole entry): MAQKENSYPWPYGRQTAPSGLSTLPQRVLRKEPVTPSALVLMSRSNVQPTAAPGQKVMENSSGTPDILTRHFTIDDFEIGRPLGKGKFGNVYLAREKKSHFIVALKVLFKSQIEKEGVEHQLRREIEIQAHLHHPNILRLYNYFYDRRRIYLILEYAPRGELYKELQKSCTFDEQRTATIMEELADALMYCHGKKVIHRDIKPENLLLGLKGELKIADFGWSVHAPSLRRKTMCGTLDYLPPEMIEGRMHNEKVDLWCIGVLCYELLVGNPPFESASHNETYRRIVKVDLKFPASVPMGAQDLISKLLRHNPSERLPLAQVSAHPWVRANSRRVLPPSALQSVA
Text: as §1, §2

In test [10] the target is FLT3 (Homo sapiens (Human), UniProt P36888). Description: Kinase selectivity panel: FLT3. The test is classed as biochemical.
Sequence of FLT3 (P36888 27-993, species assumed): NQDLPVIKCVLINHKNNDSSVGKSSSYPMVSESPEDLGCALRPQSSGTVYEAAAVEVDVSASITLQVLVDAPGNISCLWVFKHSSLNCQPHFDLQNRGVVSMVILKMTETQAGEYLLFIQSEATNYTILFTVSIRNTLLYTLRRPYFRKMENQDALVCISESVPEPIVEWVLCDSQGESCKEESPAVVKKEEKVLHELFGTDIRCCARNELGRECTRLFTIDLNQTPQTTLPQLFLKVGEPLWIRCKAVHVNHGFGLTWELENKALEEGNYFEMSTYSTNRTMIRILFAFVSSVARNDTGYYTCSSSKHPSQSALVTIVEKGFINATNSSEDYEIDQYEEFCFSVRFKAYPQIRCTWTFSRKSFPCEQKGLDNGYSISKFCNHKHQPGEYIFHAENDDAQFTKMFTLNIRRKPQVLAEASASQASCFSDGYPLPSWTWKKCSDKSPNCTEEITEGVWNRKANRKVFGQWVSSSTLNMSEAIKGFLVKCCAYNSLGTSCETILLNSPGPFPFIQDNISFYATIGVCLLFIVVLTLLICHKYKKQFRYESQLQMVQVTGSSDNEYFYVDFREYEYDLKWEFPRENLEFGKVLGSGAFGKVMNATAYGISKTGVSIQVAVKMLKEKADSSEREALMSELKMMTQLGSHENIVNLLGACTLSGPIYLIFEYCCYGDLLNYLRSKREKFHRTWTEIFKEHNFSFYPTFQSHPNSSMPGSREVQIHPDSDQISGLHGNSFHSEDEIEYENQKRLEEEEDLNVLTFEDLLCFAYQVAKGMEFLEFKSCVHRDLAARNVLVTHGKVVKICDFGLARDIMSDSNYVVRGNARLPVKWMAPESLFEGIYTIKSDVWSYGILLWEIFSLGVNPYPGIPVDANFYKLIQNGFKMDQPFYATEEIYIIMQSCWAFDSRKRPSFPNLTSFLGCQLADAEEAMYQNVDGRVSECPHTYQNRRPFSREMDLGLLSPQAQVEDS
Text: as §1, §2

The target in test [11] is GSK3β (Homo sapiens (Human), UniProt P49841). Put plainly: Kinase selectivity panel: GSK3β. It is filed as biochemical.
Sequence of GSK3β (P49841 whole entry, species assumed): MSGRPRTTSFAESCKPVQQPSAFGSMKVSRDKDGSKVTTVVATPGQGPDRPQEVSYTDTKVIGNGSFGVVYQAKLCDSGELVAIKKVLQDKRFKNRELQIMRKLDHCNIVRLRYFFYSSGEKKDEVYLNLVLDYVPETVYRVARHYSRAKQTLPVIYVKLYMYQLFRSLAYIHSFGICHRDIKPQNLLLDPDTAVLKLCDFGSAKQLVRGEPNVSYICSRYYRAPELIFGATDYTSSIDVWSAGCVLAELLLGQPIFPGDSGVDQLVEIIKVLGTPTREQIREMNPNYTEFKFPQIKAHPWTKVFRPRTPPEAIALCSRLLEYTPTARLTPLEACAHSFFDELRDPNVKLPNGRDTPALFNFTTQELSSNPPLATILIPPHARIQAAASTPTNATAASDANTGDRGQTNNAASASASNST
Text: as §1, §2

For test [12], the target named is MLK1/MAP3K9 (Homo sapiens (Human), UniProt P80192). Put plainly: Kinase selectivity panel: MLK1/MAP3K9. The test is classed as biochemical.
Sequence of MLK1/MAP3K9 (P80192 whole entry): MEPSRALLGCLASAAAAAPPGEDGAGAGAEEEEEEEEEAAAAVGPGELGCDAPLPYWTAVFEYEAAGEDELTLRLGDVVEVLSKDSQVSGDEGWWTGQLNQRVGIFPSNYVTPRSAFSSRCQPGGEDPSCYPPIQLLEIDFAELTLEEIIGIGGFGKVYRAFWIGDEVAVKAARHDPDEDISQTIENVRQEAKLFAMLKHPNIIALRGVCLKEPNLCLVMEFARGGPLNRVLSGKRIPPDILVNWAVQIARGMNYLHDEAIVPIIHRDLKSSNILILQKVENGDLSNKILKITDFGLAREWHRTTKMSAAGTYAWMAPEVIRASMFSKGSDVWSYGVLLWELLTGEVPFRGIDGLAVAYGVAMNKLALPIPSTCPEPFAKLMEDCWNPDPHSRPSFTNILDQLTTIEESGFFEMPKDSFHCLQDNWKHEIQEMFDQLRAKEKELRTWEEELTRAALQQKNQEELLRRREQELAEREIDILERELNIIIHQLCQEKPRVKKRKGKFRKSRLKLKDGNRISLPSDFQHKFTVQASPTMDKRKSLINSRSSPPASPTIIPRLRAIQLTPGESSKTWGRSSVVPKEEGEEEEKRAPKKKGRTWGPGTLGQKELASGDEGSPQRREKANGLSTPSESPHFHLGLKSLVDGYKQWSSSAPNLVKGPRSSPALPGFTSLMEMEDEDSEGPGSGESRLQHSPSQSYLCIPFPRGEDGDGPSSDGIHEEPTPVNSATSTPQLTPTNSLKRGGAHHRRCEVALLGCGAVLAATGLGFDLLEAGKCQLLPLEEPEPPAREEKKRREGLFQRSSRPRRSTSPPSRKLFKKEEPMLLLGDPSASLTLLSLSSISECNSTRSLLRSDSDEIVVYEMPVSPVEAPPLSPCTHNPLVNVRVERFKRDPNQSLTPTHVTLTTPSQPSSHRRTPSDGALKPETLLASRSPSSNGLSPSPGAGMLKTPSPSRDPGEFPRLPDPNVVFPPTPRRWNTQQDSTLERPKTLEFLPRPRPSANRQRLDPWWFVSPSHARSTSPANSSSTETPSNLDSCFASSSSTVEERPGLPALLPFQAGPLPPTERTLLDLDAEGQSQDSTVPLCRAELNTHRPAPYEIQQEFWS
Text: as §1, §2

Test [13] relates to VEGFR. Description: Kinase selectivity panel: VEGFR. The test is classed as biochemical. The protocol: In the detection step, endogenous ADP and d2-labeled ADP compete for binding an anti-ADP monoclonal antibody labelled with Eu^3+ cryptate. […] Assays were run in Greiner low volume plates with a final reaction volume of 10 μl.
The fold selectivity is indicated in parenthesis.

Setting [14] is: ATP at Km (10 μM), 0.5 nM kinase domain, 2 h, read-out: MAP4K4.

Sequence of human MAP4K4 kinase domain (O95819 25-289): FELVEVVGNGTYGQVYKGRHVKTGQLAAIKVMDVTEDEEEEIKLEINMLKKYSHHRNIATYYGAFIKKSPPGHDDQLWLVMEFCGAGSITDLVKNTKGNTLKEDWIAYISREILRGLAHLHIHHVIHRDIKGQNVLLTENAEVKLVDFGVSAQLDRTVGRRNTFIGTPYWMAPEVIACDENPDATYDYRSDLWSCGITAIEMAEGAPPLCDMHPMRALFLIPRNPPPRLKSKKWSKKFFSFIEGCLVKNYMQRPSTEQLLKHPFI
Sequence of KHS/MAP4K5 (Q9Y4K4 whole entry): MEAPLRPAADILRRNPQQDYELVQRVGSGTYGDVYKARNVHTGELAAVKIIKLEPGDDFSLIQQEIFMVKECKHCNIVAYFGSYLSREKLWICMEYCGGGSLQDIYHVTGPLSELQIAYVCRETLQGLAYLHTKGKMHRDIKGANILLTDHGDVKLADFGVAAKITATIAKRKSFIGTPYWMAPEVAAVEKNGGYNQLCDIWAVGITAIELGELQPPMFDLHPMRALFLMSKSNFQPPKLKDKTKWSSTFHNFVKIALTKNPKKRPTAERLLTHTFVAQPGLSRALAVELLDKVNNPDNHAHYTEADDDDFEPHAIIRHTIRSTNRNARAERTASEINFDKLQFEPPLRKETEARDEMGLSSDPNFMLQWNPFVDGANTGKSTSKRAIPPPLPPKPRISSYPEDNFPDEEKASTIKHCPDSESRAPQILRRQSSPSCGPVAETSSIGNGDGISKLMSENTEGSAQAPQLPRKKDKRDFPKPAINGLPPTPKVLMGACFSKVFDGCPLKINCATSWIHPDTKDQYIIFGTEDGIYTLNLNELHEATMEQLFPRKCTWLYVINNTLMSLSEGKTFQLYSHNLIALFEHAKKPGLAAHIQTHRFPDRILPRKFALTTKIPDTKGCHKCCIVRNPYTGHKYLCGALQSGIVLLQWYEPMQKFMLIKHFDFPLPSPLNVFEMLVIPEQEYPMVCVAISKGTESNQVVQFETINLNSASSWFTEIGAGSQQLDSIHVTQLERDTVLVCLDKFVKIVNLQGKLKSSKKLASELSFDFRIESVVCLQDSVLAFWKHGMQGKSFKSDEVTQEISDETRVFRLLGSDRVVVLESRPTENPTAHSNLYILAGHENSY

For orientation: EC50 means the concentration at which the effect is half-maximal. As to `CC(C)(O)CCOc1ccc(-c2cn(-c3ccccc3)c3nc[nH]c(=O)c23)cc1` [Ex-40, 5-(4-(3-hydroxy-3-methylbutoxy)phenyl)-7-phenyl-3,7-dihydro-4H-pyrrolo[2,3-d]pyrimidin-4-one], the IC50 in [1] (setting [14]) is at most 100 nM. Further, in test [2], the EC50 was below 1000 nM.
Regarding `O=c1[nH]cnc2c1c(-c1ccc(OCCCN3CCOCC3)cc1)cn2-c1ccccc1` [Ex-27], the IC50 in [1] (setting [14]) is at most 100 nM; in test [1] (read-out: pIC50 MAP4K4 (converted)), 6.31 nM; in test [3], 6.31 nM; in test [4], 10 nM; in [5] (read-out: pIC50 GCK/MAP4K2 (converted)), 200 nM; in test [6] (read-out: pIC50 GLK/MAP4K3 (converted)) it was 1580 nM. Further, the IC50 in test [7] (read-out: pIC50 KHS/MAP4K5 (converted)) was 39.8 nM; in [8] (read-out: pIC50 ABL1 (converted)) it was 3160 nM; in test [9] (read-out: pIC50 Aurora B (converted)) it was 10000 nM; in test [10] (read-out: pIC50 FLT3 (converted)), 7940 nM; in test [11] (read-out: pIC50 GSK3β (converted)), 31600 nM; in [12] (read-out: pIC50 MLK1/MAP3K9 (converted)), 79.4 nM. The “fold selectivity for MAP4K4 over GCK/MAP4K2” value in [5] is given as “(31) fold”. In addition, the “fold selectivity for MAP4K4 over GLK/MAP4K3” value in test [6] is on record as “(251) fold”. For the same compound, the “fold selectivity for MAP4K4 over KHS/MAP4K5” value in [7] is on record as “(6) fold”. Further, in test [8], the “fold selectivity for MAP4K4 over ABL1” value is “(501) fold”. The “fold selectivity for MAP4K4 over Aurora B” value in test [9] was “(1584) fold”. The “fold selectivity for MAP4K4 over FLT3” value in [10] is listed as “(1258) fold”. For the same compound, the “fold selectivity for MAP4K4 over GSK3β” value in test [11] is recorded as “(5011) fold”. In test [12], the “fold selectivity for MAP4K4 over MLK1/MAP3K9” value is listed as “(13) fold”. In addition, in [13], the “fold selectivity for MAP4K4 over VEGFR” value is “(125) fold”. Further, the “pIC50 VEGFR” value in test [13] is 6.1.
With `CC(C)(O)CCOc1ccc(-c2cn(-c3ccccc3)c3nc[nH]c(=O)c23)cc1C#N` [Ex-128], the EC50 in [2] was below 1000 nM.
As for `CC(C)(O)CCOc1ccc(-c2cn(-c3ccccc3)c3nc[nH]c(=O)c23)cc1F` [Ex-123], the EC50 in test [2] was below 1000 nM.
With `CC(C)(O)CCOc1ccc(-c2cn(-c3ccccc3)c3nc[nH]c(=O)c23)c(F)c1` [Ex-107, 5-(2-fluoro-4-(3-hydroxy-3-methylbutoxy)phenyl)-7-phenyl-3,7-dihydro-4H-pyrrolo[2,3-d]pyrimidin-4-one], the EC50 in test [2] is below 1000 nM.
For the compound `O=C1N(CCO)CCN1c1ccc(-c2cn(-c3ccccc3)c3nc[nH]c(=O)c23)cc1` [Ex-55, 5-{4-[3-(2-Hydroxy-ethyl)-2-oxo-imidazolidin-1-yl]-phenyl}-7-phenyl-3,7-dihydro-pyrrolo[2,3-d]pyrimidin-4-one], in test [1] (setting [14]), the IC50 was at most 100 nM.
The same measure, in the same setting: as for `O=C(NCCO)c1cccc(-c2cn(-c3ccccc3)c3nc[nH]c(=O)c23)c1` [Ex-44], the figure is above 1000 nM; as for `O=C1CCCN1c1ccc(-c2cn(-c3cccc(F)c3)c3nc[nH]c(=O)c23)cc1` [Ex-25], at most 100 nM; as for `CCOC(=O)c1ccc(-c2cn(-c3ccccc3)c3c(=O)[nH]cnc23)cc1` [Ex-98], above 1000 nM.
The same measure, in the same setting: as for `O=C(O)c1ccc(-c2cn(-c3ccccc3)c3c(=O)[nH]cnc23)cc1` [Ex-102], the figure is 100 to 1000 nM; as for `CNCc1cccc(-c2cn(-c3ccccc3)c3nc[nH]c(=O)c23)c1` [Ex-79], above 1000 nM.
For `CC(C)(O)COc1ccc(-c2cn(-c3ccccc3)c3c(=O)[nH]cnc23)cc1` [Ex-87], the IC50 in [1] (setting [14]) was above 1000 nM.
As for `CNC(=O)c1ccc(-n2cc(-c3ccccc3)c3c(=O)[nH]cnc32)cc1` [Ex-5, N-Methyl-4-(4-oxo-5-phenyl-3,4-dihydro-pyrrolo[2,3-d]pyrimidin-7-yl)-benzamide], the IC50 in [1] (setting [14]) is above 1000 nM.
Same read-out and setting: as for `O=C(O)c1cccc(-c2cn(-c3ccccc3)c3c(=O)[nH]cnc23)c1` [Ex-101, 3-(4-Oxo-5-phenyl-4,5-dihydro-3H-pyrrolo[3,2-d]pyrimidin-7-yl)-benzoic acid], the figure is above 1000 nM.
With `CN1CCC(Oc2ccc(-c3cn(-c4ccccc4)c4c(=O)[nH]cnc34)cc2)CC1` [Ex-86], the IC50 in test [1] (setting [14]) was at most 100 nM.
The same measure, in the same setting: as for `O=c1[nH]cnc2c1c(-c1ccc(OCC(O)CN3CCOCC3)cc1)cn2-c1ccccc1` (stereo not drawn) [Ex-42], the figure is at most 100 nM.
In the case of `CN(C)Cc1cccc(-c2cn(-c3ccccc3)c3nc[nH]c(=O)c23)c1` [Ex-31], in test [1] (setting [14]), the IC50 is above 1000 nM.
On the same count and under the same terms, as for `CN(C)CCNC(=O)c1cccc(-c2cn(-c3ccccc3)c3nc[nH]c(=O)c23)c1` [Ex-21], the figure is above 1000 nM; as for `O=C(O)c1ccc(-n2cc(-c3ccccc3)c3c(=O)[nH]cnc32)cc1` [Ex-1, 4-(4-Oxo-5-phenyl-3,4-dihydro-pyrrolo[2,3-d]pyrimidin-7-yl)-benzoic acid], 100 to 1000 nM; as for `COCCOc1ccc(-c2cn(-c3cccc(F)c3)c3nc[nH]c(=O)c23)cc1` [Ex-65], at most 100 nM.
Turning to `CC(=O)Nc1cccc(-c2cn(-c3ccccc3)c3nc[nH]c(=O)c23)c1` [Ex-12], the IC50 in [1] (setting [14]) was 100 to 1000 nM.
As for `CN1CCN(c2ccc(-c3cn(-c4ccccc4)c4nc[nH]c(=O)c34)cc2)C1=O` [Ex-29], the IC50 in test [1] (setting [14]) is at most 100 nM.
On to `CN(C)CCCOc1ccc(-c2cn(-c3ccccc3)c3nc[nH]c(=O)c23)cc1` [Ex-26], for which the IC50 in [1] (setting [14]) is at most 100 nM.
As to `CNCCC(=O)Nc1ccc(-c2cn(-c3ccccc3)c3nc[nH]c(=O)c23)cc1` [Ex-81], the IC50 in [1] (setting [14]) is at most 100 nM.
On to `O=C1CCCCN1c1ccc(-c2cn(-c3ccccc3)c3nc[nH]c(=O)c23)cc1` [Ex-20], for which the IC50 in test [1] (setting [14]) lay within 100 to 1000 nM.
With `CN1CCN(CC(=O)Nc2ccc(-c3cn(-c4cccc(F)c4)c4nc[nH]c(=O)c34)cc2)CC1` [Ex-18], the IC50 in [1] (setting [14]) was at most 100 nM.
On to `O=c1[nH]cnc2c1c(-c1ccc(OCCO)cc1)cn2-c1ccccc1` [Ex-70], for which the IC50 in [1] (setting [14]) was at most 100 nM.
As to `O=c1[nH]cnc2c1c(-c1cccc(CO)c1)cn2-c1ccccc1` [Ex-45], the IC50 in test [1] (setting [14]) was at most 100 nM.
On to `O=c1[nH]cnc2c1c(-c1ccccc1F)cn2-c1ccccc1` [Ex-66], for which the IC50 in [1] (setting [14]) was 100 to 1000 nM.
Turning to `CN(Cc1cccc(-c2cn(-c3ccccc3)c3nc[nH]c(=O)c23)c1)C(=O)OC(C)(C)C` [Ex-32], the IC50 in [1] (setting [14]) lay in the range of 100 to 1000 nM.
In the case of `N#Cc1cc(-c2cn(-c3ccccc3)c3nc[nH]c(=O)c23)ccc1OCC(O)CN1CCOCC1` (stereo not drawn) [Ex-49], the IC50 in [1] (setting [14]) is at most 100 nM.
`CN1CCN(CCCOc2ccc(-c3cn(-c4ccccc4)c4nc[nH]c(=O)c34)cc2)CC1` [Ex-35]: the IC50 in test [1] (setting [14]) was at most 100 nM.
Take `CC(=O)NCc1cccc(-c2cn(-c3ccccc3)c3nc[nH]c(=O)c23)c1` [Ex-71, N-[3-(4-Oxo-7-phenyl-4,7-dihydro-3H-pyrrolo[2,3-d]pyrimidin-5-yl)-benzyl]-acetamide]: in test [1] (setting [14]), the IC50 fell in the range of 100 to 1000 nM.
With `CNCC(=O)Nc1ccc(-c2cn(-c3ccccc3)c3nc[nH]c(=O)c23)cc1` [Ex-77], the IC50 in [1] (setting [14]) is at most 100 nM.
Consider `NC(=O)c1cccc(-n2cc(-c3ccccc3)c3c(=O)[nH]cnc32)c1` [Ex-2], for which the IC50 in test [1] (setting [14]) was at most 100 nM.
